Assay in all cases: Zones of inhibition of impregnated catheter segments, modified Kirby-Bauer method
Experiment [1] has as its system vancomycin-resistant Enterococcus (VRE). It is filed as cell-based. The conditions noted are these: Enterococcus, catheter impregnated with 100 mg/ml of each agent. The protocol:
(§1) To evaluate the antimicrobial activity of central venous catheters treated with α-lipoic acid or its combination with gentamicin, segments of 7 French triple lumen polyurethane central venous catheters were impregnated with α-lipoic acid, gentamicin, or the combination of lipoic acid and gentamicin using the same patented method described in Example 1 with 50 mg/ml of each agent (for the final solution volume). After the impregnation process and drying, zones of inhibition were performed on one-centimeter segments according to a modified Kirby-Bauer method against MSSE, MRSE, MRSA, K. pneumoniae, E. coli, P. mirabilis, Pseudomonas aeruginosa, and Candida albicans. Each segment was half embedded in the center of a Muller-Hinton agar plate that had been previously inoculated with an individual organism. Prior to placing the catheter segments in agar, each organism was grown for 18 hours in TSB to a concentration of 0.5 McFarland (10^8 cfu/ml). A cotton swab was placed in the suspension and streaked across the surface of the Muller-Hinton agar plate to cover the entire plate. All plates were placed in a 37° C. incubator for 24 hours. Zones were measured in mm after the incubation period (Table 2).
To evaluate the antimicrobial activity of central venous catheters treated with lipoamide or its combination with levofloxacin, segments of 7 French triple lumen polyurethane central venous catheters were impregnated with levofloxacin or the combinations of lipoamide and levofloxacin using the same patented method described in Example 1 (U.S. Pat. No. 6,589,591) with 100 mg/ml (final solution volume) of each agent. […] Zones of inhibition were measured in mm after the incubation period (Table 4).
To evaluate the antimicrobial activity of central venous catheters treated with lipoamide or its combination with doxycycline, segments of 7 French triple lumen polyurethane central venous catheters were impregnated with doxycycline or the combinations of lipoamide and doxycycline using the same patented method described in Example 1 (U.S. Pat. No. 6,589,591) with 100 mg/ml (final solution volume) of each agent. […] Zones of inhibition were measured in mm after the incubation period (Table 5).
To evaluate the antimicrobial activity of central venous catheters treated with dihydrolipoic acid, segments of 7 French triple lumen polyurethane central venous catheters were impregnated with dihydrolipoic acid using the same patented method described in Example 1 (U.S. Pat. No. 6,589,591) with 25 mg/ml (final solution volume) of the agent. […] Zones of inhibition were measured in mm after the incubation period (Table 6).

A further experiment relates to Klebsiella pneumoniae II. It counts as cell-based. The conditions noted are these: for zone of inhibition at 100000 µg/mL: Klebsiella pneumoniae II, catheter impregnated with 100 mg/ml of each agent. As to the method:
as §1
(§2) To evaluate the antimicrobial activity of central venous catheters treated with α-lipoic acid or its combination with doxycycline, segments of 7 French triple lumen polyurethane central venous catheters were impregnated with doxycycline or the combinations of α-lipoic acid and doxycycline using the same patented method described in Example 1 (U.S. Pat. No. 6,589,591) with 50 mg/ml of each agent (for the final solution volume). After the impregnation process and drying, zones of inhibition were performed on one-centimeter segments according to a modified Kirby-Bauer method against MSSE, MRSE, MRSA, K. pneumoniae, E. coli, P. aeruginosa, P. mirabilis, and C. albicans as described in Example 2. Zones of inhibition were measured in mm after the incubation period (Table 3).
(§3) To evaluate the antimicrobial activity of central venous catheters treated with lipoamide or its combination with levofloxacin, segments of 7 French triple lumen polyurethane central venous catheters were impregnated with levofloxacin or the combinations of lipoamide and levofloxacin using the same patented method described in Example 1 (U.S. Pat. No. 6,589,591) with 100 mg/ml (final solution volume) of each agent. After the impregnation process and drying, zones of inhibition were performed on one-centimeter segments according to a modified Kirby-Bauer method against MSSE, MRSE, MRSA, vancomycin-resistant Enterococcus (VRE), K. pneumoniae, E. coli, P. aeruginosa, P. mirabilis, and C. albicans as described in Example 2. Zones of inhibition were measured in mm after the incubation period (Table 4).
as §3, with “doxycycline,” for “levofloxacin,”, “doxycycline” for “levofloxacin”, “5).” for “4).”
(§4) To evaluate the antimicrobial activity of central venous catheters treated with dihydrolipoic acid, segments of 7 French triple lumen polyurethane central venous catheters were impregnated with dihydrolipoic acid using the same patented method described in Example 1 (U.S. Pat. No. 6,589,591) with 25 mg/ml (final solution volume) of the agent. […]

A further experiment relates to Klebsiella pneumoniae I. It is filed as cell-based. The following applies: for zone of inhibition at 100000 µg/mL: catheter impregnated with 100 mg/ml of each agent. As to the method: as §1, §2, §3
as §3, with “doxycycline,” for “levofloxacin,”, “doxycycline” for “levofloxacin”, “5).” for “4).”
as §4

A further experiment has as its system Candida albicans. It counts as cell-based. The conditions noted are these: for zone of inhibition at 100000 µg/mL: catheter impregnated with 100 mg/ml of each agent. As to the method:
as §1, §2, §3
as §3, with “doxycycline,” for “levofloxacin,”, “doxycycline” for “levofloxacin”, “5).” for “4).”
as §4

The subject of the next experiment is Pseudomonas aeruginosa. It counts as cell-based. The following applies: Pseudomonas aeruginosa; for zone of inhibition at 100000 µg/mL: Pseudomonas aeroginosa, catheter impregnated with 100 mg/ml of each agent. The protocol:
as §1, §2, §3
as §3, with “doxycycline,” for “levofloxacin,”, “doxycycline” for “levofloxacin”, “5).” for “4).”
as §4

The test system of another experiment is Proteus mirabilis. It counts as cell-based. The following applies: for zone of inhibition at 100000 µg/mL: catheter impregnated with 100 mg/ml of each agent. As to the method: as §1, §2, §3
as §3, with “doxycycline,” for “levofloxacin,”, “doxycycline” for “levofloxacin”, “5).” for “4).”
as §4

In the next experiment the test system is Escherichia coli. It counts as cell-based. The following applies: for zone of inhibition at 100000 µg/mL: catheter impregnated with 100 mg/ml of each agent. The protocol:
as §1, §2, §3
as §3, with “doxycycline,” for “levofloxacin,”, “doxycycline” for “levofloxacin”, “5).” for “4).”
as §4

A further experiment relates to MSSE. It counts as cell-based, Staphylococcus epidermidis. The conditions noted are these: for zone of inhibition at 100000 µg/mL: catheter impregnated with 100 mg/ml of each agent. The protocol: as §1, §2, §3
as §3, with “doxycycline,” for “levofloxacin,”, “doxycycline” for “levofloxacin”, “5).” for “4).”
as §4

The subject of another experiment is MRSE. It is filed as cell-based, Staphylococcus epidermidis. The conditions noted are these: for zone of inhibition at 100000 µg/mL: catheter impregnated with 100 mg/ml of each agent. The protocol: as §1, §2, §3
as §3, with “doxycycline,” for “levofloxacin,”, “doxycycline” for “levofloxacin”, “5).” for “4).”
as §4

A further experiment has as its system MRSA. It is filed as cell-based, Staphylococcus aureus. The conditions noted are these: for zone of inhibition at 100000 µg/mL: catheter impregnated with 100 mg/ml of each agent. As to the method: as §1, §2, §3
as §3, with “doxycycline,” for “levofloxacin,”, “doxycycline” for “levofloxacin”, “5).” for “4).”
as §4

The mark [2] stands for this setting: catheter impregnated with 50 mg/ml of each agent, 37° C., 24 hours.
The mark [3] stands for this setting: Staphylococcus epidermidis, catheter impregnated with 50 mg/ml of each agent, 37° C., 24 hours.

Take `C[C@H]1c2cccc(O)c2C(=O)C2=C(O)[C@]3(O)C(=O)C(C(N)=O)=C(O)[C@@H](N(C)C)[C@@H]3[C@@H](O)[C@@H]21` [Doxycycline, doxycycline]: the zone of inhibition (in general, the extent of the growth-free halo in a diffusion test) at 100000 µg/mL in experiment [1] stood at 30 mm; with Klebsiella pneumoniae II, 7 mm; in the experiment on Klebsiella pneumoniae I it was 19 mm; in the experiment with Candida albicans, 5 mm; in the experiment with Pseudomonas aeruginosa, 11 mm; with Proteus mirabilis, 0 mm. Further, the zone of inhibition at 100000 µg/mL came to 22 mm with Escherichia coli, 20 mm in the experiment on MSSE (Staphylococcus epidermidis), 38 mm in the experiment with MRSE (Staphylococcus epidermidis) and 19 mm in the experiment with MRSA (Staphylococcus aureus). Moreover, the zone of inhibition at 50000 µg/mL with Klebsiella pneumoniae II (Klebsiella pneumoniae, Klebsielle pneuminiae II, catheter impregnated with 50 mg/ml of each agent, 37° C., 24 hours) stood at 13 mm; with Klebsiella pneumoniae I (setting [2]), 17 mm; in the experiment on Candida albicans (setting [2]), 13 mm; with Pseudomonas aeruginosa (setting [2]) it was 13 mm; with Proteus mirabilis (setting [2]), 4 mm; in the experiment on Escherichia coli (setting [2]), 24 mm. Moreover, the zone of inhibition at 50000 µg/mL in the experiment with MSSE (setting [3]) amounted to 21 mm; with MRSE (setting [3]), 35 mm; in the experiment with MRSA (Staphylococcus aureus, catheter impregnated with 50 mg/ml of each agent, 37° C., 24 hours), 22 mm.
For the compound `C[C@H]1COc2c(N3CCN(C)CC3)c(F)cc3c(=O)c(C(=O)O)cn1c23` [Levofloxacin, levofloxacin], the zone of inhibition at 100000 µg/mL in experiment [1] was determined as 7 mm; with Klebsiella pneumoniae II it was 18 mm; in the experiment on Klebsiella pneumoniae I, 24 mm; with Candida albicans it was 0 mm; with Pseudomonas aeruginosa, 19 mm; in the experiment on Proteus mirabilis it was 31 mm. In addition, the zone of inhibition at 100000 µg/mL amounted to 27 mm in the experiment with Escherichia coli, 30 mm in the experiment on MSSE (Staphylococcus epidermidis), 31 mm in the experiment on MRSE (Staphylococcus epidermidis) and 21 mm in the experiment on MRSA (Staphylococcus aureus).
For the compound gentamicin, the Zones of inhibition in the experiment with Klebsiella pneumoniae II (Klebsielle pneuminiae II, catheter impregnated with 50 mg/ml of each agent, 37° C., 24 hours) came out at 0 mm; in the experiment on Klebsiella pneumoniae I (setting [2]), 13 mm; with Candida albicans (setting [2]), 0 mm; in the experiment with Pseudomonas aeruginosa (setting [2]) it was 5 mm; in the experiment with Proteus mirabilis (setting [2]) it was 14 mm; in the experiment with Escherichia coli (setting [2]), 12 mm. In addition, the Zones of inhibition is recorded as 21 mm in the experiment on MSSE (setting [2]), 22 mm with MRSE (setting [2]) and 15 mm in the experiment on MRSA (setting [2]).

The values are drawn from patent US9956319B2, “Compositions useful as antibiofilm or antimicrobial agents and methods using same” (BAYLOR COLLEGE OF MEDICINE, priority 2012, dated 2018).
